These are literature values, as cited in US7314719B2, “Method for increasing productivity of secondary metabolite by conferring drug-resistant mutations” (priority 2001, dated 2008).

Where two headings read alike, the source gives them in different places.

For the data set the following is noted: cited from earlier work.

Consider `C[C@H]1O[C@H](CC(=O)O)Cc2c1c(O)c1c(O)c(-c3cc(=O)c4c(=O)c5c(c(=O)c=4c3=O)[C@@H](C)O[C@H](CC(=O)O)C5)cc(O)c1c2O` [actinorhodin], for which the Solubility entry by setting is: (in alcohol, acetic acid, acetone) “slightly soluble”; (in aq acid) “Practically insol”; (in aq alkali (bright blue color)) “sol”; (in piperidine, tetrahydrofuran, dioxane, phenol) “Soluble”.
